Reference: patent US20200255367A1, “Diesters for Personal Care Applications Derived from 1-Methylheptyl Alcohol” (Inolex Investment Corporation, priority 2016, published 2020)

Tests used:
[1] = Acid value (AV), ASTM method; format: physicochemical
Protocol: Acid value (AV) was measured using ASTM official method number D-974-1 ? .

[2] = Moisture content by Karl-Fischer; format: physicochemical
Protocol: Moisture content (% HOH) was measured using an automatic volumetric Karl-Fischer device, the Aquastar AQV21 (Gibbstown, N.J., USA.)

[3] = Kinematic viscosity at 25° C., ASTM method; format: physicochemical
Protocol: Kinematic viscosity was tested at 25° C. using ASTM (American Society of Testing and Materials, West Conshohocken, Pa., USA) official method number D-44515a.

[4] = Color, ASTM D-1209; format: physicochemical
Protocol: Color was measured using ASTM D-1209-05(2001 reapproved), and flash point was determined using ASTM D-92-12b.

[5] = 60° C.; cited from earlier work

**Q.** For `CCCCCCC(C)OC(=O)CCC(=O)OC(C)CCCCCC` (stereo not shown) [bis(1-methylheptyl) butanedioate], which Acid value [1] is on record?
**A.** Its Acid value is 0.01 mg KOH/g.

**Q.** And the Moisture [2]?
**A.** The Moisture was 0.01 wt. %.

**Q.** And the “Kinematic Viscosity” value [3]?
**A.** The value was 12.0 cSt.

**Q.** What about the Color [4] of the same compound?
**A.** The Color was 12 APHA.

**Q.** Which “alkaline hydrolysis rate constant (kOH)” value [5] does the source give for `CCOC(=O)c1ccccc1` [ethyl benzoate] here?
**A.** Its value is 0.258 M⁻¹ s⁻¹.

**Q.** With `CC(C)OC(=O)c1ccccc1` [isopropyl benzoate] as the compound, how does the “alkaline hydrolysis rate constant (kOH)” value [5] read?
**A.** Its value is 0.0533 M⁻¹ s⁻¹.

**Q.** Which Acid value [1] does the source give for `CCCCCCC(=O)OCC(C)(C)COC(=O)CCCCCC` [neopentyl glycol diheptanoate] here?
**A.** Its Acid value is 0.05 mg KOH/g.

**Q.** What about the Moisture [2] of the same compound?
**A.** The Moisture was 0.01 wt. %.

**Q.** What about the “Kinematic Viscosity” value [3] of the same compound?
**A.** Its value is 7.2 cSt.

**Q.** And the Color [4]?
**A.** Its Color is 17 APHA.
